Test results: US10189809B2, “SGC stimulators” (Ironwood Pharmaceuticals, Inc., priority 2010, dated 2019)
Read-outs that look alike come from different tables or passages of the source.

Tests used:
[1] = molecular target: T1, soluble guanylate cyclase (sGC) (Homo sapiens (Human), UniProt Q02108+Q02153); experiment: sGC-HEK-cGMP assay run in the absence of SNP (HEK WC assay); format: cell-based; conditions: compound at 30 μM, absence of SNP
Summary of the method: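 HEK293 cells with endogenous sGC, preincubated 15 min at 37° C with 0.5 mM IBMX, then exposed to test compound 10 min at 37° C without SNP. Cells lysed in 0.1 M HCl; cGMP quantified by LC/MS against a standard curve. EC50 from concentration-response curves.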

[2] = molecular target: T1, soluble guanylate cyclase (sGC); experiment: sGC-HEK-cGMP assay run with SNP incubation (HEK WC assay); format: cell-based; conditions: for HEK WC Assay (fold increase at 30 μM in the presence of 10 μM SNP): compound at 30 μM; for EC50: in the presence of 10 uM SNP
Summary of the method: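 HEK293 cells with endogenous sGC were pretreated with 0.5 mM IBMX for 15 min at 37 °C, then exposed to test compound plus sodium nitroprusside for 10 min at 37 °C.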

[3] = tested on: Thoracic aortic rings; experiment: Alternative thoracic aortic rings assay (Example 19b; resting tension as 100% inhibition); parameters: species or system rat; conditions: Rattus norvegicus, Table 10B; for inhibition at 1 µM: read-out: Percent Relaxation at 1 μM; for inhibition at 3 µM: read-out: Percent Relaxation at 3 μM; for inhibition at 10 µM: read-out: Percent Relaxation at 10 μM; for EC50: read-out: Aortic Ring EC50
Protocol: Thoracic aortic rings were dissected from anesthetized (isoflurane) male Sprague-Dawley rats weighing 275-299 g. Tissues were immediately transferred to ice-cold Krebs-Henseleit solution, which had been aerated with 95% O2 and 5% CO2 for 30 minutes. Following removal of connective tissue, aortic sections were cut into 4 rings (˜2 mm each) and suspended on 2 L-shaped hooks, with one hook fixed at the bottom of the tissue bath (Schuler Organ Bath, Harvard Apparatus) and the other connected to a force transducer (F30 Force Transducer, Harvard Apparatus). Baths contained Krebs Henseleit solution (10 mL) heated to 37° C. and aerated with 95% O2 and 5% CO2. Rings were brought to an initial tension of 0.3-0.5 g and gradually raised to a resting tension of 1.0 g over 60 minutes. Rings were rinsed with Krebs Henseleit solution (heated to 37° C. and aerated with 95% O2 and 5% CO2) at 15 minute intervals until a stable baseline was obtained. Rings were considered to be stable after a resting tension of 1.0 g was maintained (for approximately 10 minutes) without need for adjustment. Rings were then contracted with 100 ng/mL phenylephrine by adding 100 uL of a 10 μg/mL phenylephrine stock solution. Tissues achieving a stable contraction were then treated in a cumulative, dose dependent manner with test compounds prepared in dimethylsulfoxide (DMSO). In some cases, tissues were rinsed three times over a 5 minute period with Krebs-Heinseleit's solution (heated to 37° C. and aerated with 95% O2 and 5% CO2), allowed to stabilize at baseline, and then used for characterization of other test articles or DMSO effects. All data were collected using the HSE-ACAD software provided by Harvard Apparatus. […] EC50 values were calculated from concentration-response curves generated with GraphPad Prism Software.

[4] = read-out: HEK WC Assay (% Emax at 10 μM with 10 uM SNP)
[5] = read-out: HEK WC Assay (% Emax at 30 μM with 10 uM SNP)
[6] = read-out: HEK WC Assay (% Emax at 1 μM with 10 uM SNP)

T1 sequence (Q02153 whole entry): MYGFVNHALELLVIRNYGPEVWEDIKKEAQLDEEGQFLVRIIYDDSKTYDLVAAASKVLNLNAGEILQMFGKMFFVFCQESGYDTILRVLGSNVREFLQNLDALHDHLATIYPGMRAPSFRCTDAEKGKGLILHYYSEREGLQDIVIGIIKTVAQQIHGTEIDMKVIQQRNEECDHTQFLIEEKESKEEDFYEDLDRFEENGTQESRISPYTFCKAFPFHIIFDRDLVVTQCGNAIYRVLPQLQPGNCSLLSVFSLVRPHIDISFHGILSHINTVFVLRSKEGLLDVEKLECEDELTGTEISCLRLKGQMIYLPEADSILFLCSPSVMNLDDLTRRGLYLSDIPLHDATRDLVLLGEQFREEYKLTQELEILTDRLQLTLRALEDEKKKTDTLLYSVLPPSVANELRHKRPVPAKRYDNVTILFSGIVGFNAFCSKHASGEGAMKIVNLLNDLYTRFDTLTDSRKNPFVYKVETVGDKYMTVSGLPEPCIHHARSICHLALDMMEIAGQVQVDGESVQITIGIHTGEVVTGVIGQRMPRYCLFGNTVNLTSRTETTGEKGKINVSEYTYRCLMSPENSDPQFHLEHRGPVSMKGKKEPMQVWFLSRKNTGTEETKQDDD
T1 sequence (Q02108 whole entry): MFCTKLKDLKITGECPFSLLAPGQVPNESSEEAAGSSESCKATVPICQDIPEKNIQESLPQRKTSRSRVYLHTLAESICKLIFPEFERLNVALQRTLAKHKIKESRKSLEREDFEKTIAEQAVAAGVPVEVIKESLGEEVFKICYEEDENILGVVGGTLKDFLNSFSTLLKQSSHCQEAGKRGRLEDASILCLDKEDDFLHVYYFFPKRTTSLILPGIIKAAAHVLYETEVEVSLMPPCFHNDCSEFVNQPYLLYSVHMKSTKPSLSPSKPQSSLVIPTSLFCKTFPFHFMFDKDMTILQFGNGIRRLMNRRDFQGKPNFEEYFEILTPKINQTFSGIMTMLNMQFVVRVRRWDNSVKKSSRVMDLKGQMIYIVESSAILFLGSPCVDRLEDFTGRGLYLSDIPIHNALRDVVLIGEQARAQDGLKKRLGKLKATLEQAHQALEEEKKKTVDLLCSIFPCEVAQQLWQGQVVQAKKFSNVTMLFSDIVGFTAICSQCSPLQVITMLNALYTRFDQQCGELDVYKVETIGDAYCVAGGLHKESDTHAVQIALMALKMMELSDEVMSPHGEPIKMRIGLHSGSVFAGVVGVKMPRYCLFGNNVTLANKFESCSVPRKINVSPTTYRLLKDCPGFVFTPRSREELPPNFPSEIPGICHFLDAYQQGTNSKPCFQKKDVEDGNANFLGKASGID

Row | Compound | HEK WC Assay (fold increase at 30 μM in the absence of SNP) [1] | HEK WC Assay (fold increase at 30 μM in the presence of 10 μM SNP) [2] | EC50 [2] [µM] | Emax [2, 4] [%] | Emax [2, 5] [%] | EC50 [3] [µM] | Emax [2, 6] [%] | inhibition at 1 µM [3] [%] | inhibition at 3 µM [3] [%] | inhibition at 10 µM [3] [%]
1 | Nc1nc(-c2cc(-c3ccon3)n(Cc3ccccc3F)n2)ncc1NC(=O)OCCCl [Compound I-152] | E (E = 10 to <20 fold increase) | E (E = 10 to <20 fold increase) | < 20 | 60 to 80 | 40 to 60 | < 2 | – | 60 to 80 | 80 to 100 | 100 to 120
2 | O=C(Nc1cnc(-c2cc(-c3ccon3)n(Cc3ccccc3F)n2)nc1O)c1ccccc1 [Compound I-158] | C (C = 2 to <5 fold increase) | – | 100 to 300 | 20 to 40 | 20 to 40 | 4 to 8 | 0 to 10 | 10 to 20 | 40 to 60 | 80 to 100
3 | CC(C)C(=O)Nc1cnc(-c2cc(-c3ccon3)n(Cc3ccccc3F)n2)nc1N [Compound I-165] | D (D = 5 to <10 fold increase) | F (F = 20 to <30 fold increase) | < 20 | 80 to 100 | 100 to 120 | < 2 | 40 to 60 | 60 to 80 | 80 to 100 | 100 to 120
4 | Nc1nc(-c2cc(-c3ccon3)n(Cc3ccccc3F)n2)ncc1NC(=O)c1ccc(F)cc1 [Compound I-168] | E (E = 10 to <20 fold increase) | G (G = 30 to <40 fold increase) | < 20 | 100 to 120 | 100 to 120 | < 2 | 100 to 120 | 60 to 80 | 100 to 120 | 100 to 120
5 | Nc1nc(-c2cc(-c3ccon3)n(Cc3ccccc3F)n2)ncc1NC(=O)c1ccncc1 [Compound I-176] | E (E = 10 to <20 fold increase) | E (E = 10 to <20 fold increase) | < 20 | 60 to 80 | 60 to 80 | < 2 | 20 to 40 | 80 to 100 | 100 to 120 | –
6 | Nc1nc(-c2cc(-c3ccon3)n(Cc3ccccc3F)n2)ncc1Nc1nccs1 [Compound I-178] | E (E = 10 to <20 fold increase) | E (E = 10 to <20 fold increase) | < 20 | 80 to 100 | 60 to 80 | < 2 | 40 to 60 | 60 to 80 | 100 to 120 | 100 to 120
7 | Nc1nc(-c2cc(-c3ncco3)n(Cc3ccccc3F)n2)ncc1NC(=O)c1ccccc1 [Compound I-186] | D (D = 5 to <10 fold increase) | F (F = 20 to <30 fold increase) | < 20 | 60 to 80 | 80 to 100 | < 2 | 60 to 80 | 60 to 80 | 80 to 100 | 100 to 120
8 | CS(=O)(=O)c1cnc(-c2cc(-c3ccon3)n(Cc3ccccc3F)n2)nc1O [Compound I-196] | C (C = 2 to <5 fold increase) | E (E = 10 to <20 fold increase) | < 20 | 60 to 80 | 80 to 100 | < 2 | 20 to 40 | 60 to 80 | 80 to 100 | 80 to 100

Further lines, with some results ahead:

Row | HEK WC Assay (fold increase at 30 μM in the absence of SNP) [1] | HEK WC Assay (fold increase at 30 μM in the presence of 10 μM SNP) [2] | EC50 [2] [µM] | Emax [2, 4] [%] | Emax [2, 5] [%] | EC50 [3] [µM] | Emax [2, 6] [%] | Compound | inhibition at 1 µM [3] [%] | inhibition at 3 µM [3] [%] | inhibition at 10 µM [3] [%]
9 | C (C = 2 to <5 fold increase) | D (D = 5 to <10 fold increase) | < 20 | 40 to 60 | 60 to 80 | < 2 | – | Nc1nc(-c2cc(-c3ccon3)n(Cc3ccccc3F)n2)ncc1N1CCOC1=O [Compound I-153] | 60 to 80 | 60 to 80 | 80 to 100
10 | E (E = 10 to <20 fold increase) | G (G = 30 to <40 fold increase) | < 20 | 80 to 100 | 60 to 80 | < 2 | – | Nc1nc(-c2cc(-c3ccon3)n(Cc3ccccc3F)n2)ncc1NC(=O)c1ccccn1 [Compound I-162] | 100 to 120 | > 120 | –
11 | D (D = 5 to <10 fold increase) | G (G = 30 to <40 fold increase) | < 20 | 80 to 100 | 100 to 120 | < 2 | 60 to 80 | COc1ccccc1C(=O)Nc1cnc(-c2cc(-c3ccon3)n(Cc3ccccc3F)n2)nc1N [Compound I-166] | 40 to 60 | 80 to 100 | 100 to 120
12 | C (C = 2 to <5 fold increase) | D (D = 5 to <10 fold increase) | < 20 | 40 to 60 | 60 to 80 | < 2 | 20 to 40 | Nc1nc(-c2cc(-c3ccon3)n(Cc3ccccc3F)n2)ncc1N1CCCC1=O [Compound I-169] | 40 to 60 | 80 to 100 | –
13 | E (E = 10 to <20 fold increase) | E (E = 10 to <20 fold increase) | < 20 | 60 to 80 | 80 to 100 | < 2 | 80 to 100 | Nc1nc(-c2cc(-c3ccon3)n(Cc3ccccc3F)n2)ncc1NC(=O)c1ccccc1F [Compound I-172] | 80 to 100 | 100 to 120 | 100 to 120
14 | E (E = 10 to <20 fold increase) | F (F = 20 to <30 fold increase) | < 20 | 80 to 100 | 100 to 120 | < 2 | 60 to 80 | COc1cccc(C(=O)Nc2cnc(-c3cc(-c4ccon4)n(Cc4ccccc4F)n3)nc2N)c1 [Compound I-174] | 80 to 100 | 80 to 100 | –
15 | D (D = 5 to <10 fold increase) | E (E = 10 to <20 fold increase) | < 20 | 80 to 100 | 80 to 100 | < 2 | 40 to 60 | COCC(=O)Nc1cnc(-c2cc(-c3ccon3)n(Cc3ccccc3F)n2)nc1N [Compound I-177] | 80 to 100 | 80 to 100 | –
16 | E (E = 10 to <20 fold increase) | E (E = 10 to <20 fold increase) | < 20 | 100 to 120 | 80 to 100 | < 2 | 60 to 80 | Cc1ccccc1C(=O)Nc1cnc(-c2cc(-c3ccon3)n(Cc3ccccc3F)n2)nc1N [Compound I-184] | 80 to 100 | 100 to 120 | –
17 | E (E = 10 to <20 fold increase) | E (E = 10 to <20 fold increase) | < 20 | 80 to 100 | 100 to 120 | < 2 | 60 to 80 | Nc1nc(-c2cc(-c3ccon3)n(Cc3ccccc3F)n2)ncc1NC(=O)c1ccccc1Cl [Compound I-185] | 60 to 80 | 100 to 120 | 100 to 120
18 | E (E = 10 to <20 fold increase) | F (F = 20 to <30 fold increase) | < 20 | 60 to 80 | 60 to 80 | < 2 | 40 to 60 | Nc1nc(-c2cc(-c3ccon3)n(Cc3ccccc3F)n2)ncc1NC(=O)c1cnco1 [Compound I-188] | 80 to 100 | 100 to 120 | 100 to 120
